Measured values: article PMC6273861, “Synthesis and Determination of Physicochemical Properties of New 3-(4-Arylpiperazin-1-yl)-2-hydroxypropyl 4-Alkoxyethoxybenzoates” (Molecules, 2016)

What was measured:
[1] = Lipophilicity index (log kw7.4, log kw) by RP-HPLC; type: physicochemical; conditions: for log kw7.4: RP-HPLC, ZORBAX Extend-C18, pH 7.4, extrapolated to 100% water, mean and standard deviation; for log kw: neutral form, calculated from log kw7.4 and pKa by Equation (2)
Method: The lipophilicity indexes log kw7.4 were measured by means of RP-HPLC method. The log kw values were then calculated according to Equation (2) given in Section 3.3. The correlation coefficients were greater than 0.999 with covariance equal or less than 0.03 units (n = 2). The log kw^7.4 values of synthetized compounds were measured by a Dionex Ultimate 3000 (Thermo Fisher Scientific) HPLC system controlled through the Chromeleon® Chromatography Data System (version 7.2). The separation was performed on ZORBAX Extend-C18 (3.5 µm, 3 × 150 mm) column (Agilent Technologies). Mobile phase consists of 0.02 M […] with addition of 0.15% of n-decylamine (pH = 7.4; constituent A) and methanol to which 0.25% of n-octanol was added (constituent B). The total flow rate was 0.4 mL/min, the injection volume was 1 μL, and the column temperature was maintained at 25 °C. The detection wavelength of 254 nm was chosen. One milligram of the sample was dissolved in 1 mL of methanol and diluted to the concentration 0.1 mg/mL with 50% methanol. Retention factors of the compound were measured under isocratic conditions in the range 20:80–50:50 (A:B; v/v), 5 values for each factor in duplicate. Linear regression analysis was performed and log kw7.4 values were calculated according to Equation (1). (1) logk=−Sϕ+logkw where log k represents a logarithm of individual isocratic factor, φ is the organic phase concentration, and S is a constant derived by linear regression analysis. The retention factor corresponding to the neutral form (log kw) was estimated from the apparent log kw7.4 by using Equation (2). (2) logkw=logkwapp+log(1+10^pKa−pH)

[2] = Determination of dissociation constants (pKa) by capillary zone electrophoresis; type: physicochemical; conditions: 25 °C, BGE pH 3.9 to 9.2, mean and standard deviation of four measurements, read-out: pKa (exp.)
Method: The dissociation constants (pKa) of studied compounds were determined by means of CE. The measured values and values predicted by chemical software (ACD Percepta ver. 2012, Advanced Chemistry Development, Toronto, ON, Canada; MarvinSketch 6.0.6., ChemAxon Kft., Budapest, Hungary) are shown in Table 1. The correlation coefficients of the experimentally determined values were greater than 0.999 and standard deviation equal or less than 0.02 units (n = 4). The experimental values are in the range 6.35–6.92 and the highest values were recorded for the 1-(2-methoxyphenylpiperazine) derivatives 7b, 8b, 9b. The clinically used β-blockers are usually stronger bases, the values of studied compounds are lower due to the presence of piperazine moiety instead of secondary amine group.
The CE experiments were carried out with an Agilent 3D CE (Agilent Technologies) capillary electrophoresis system equipped with an autosampler, automatic injector, photodiode array detector, and an air cooling unit for the capillary. The instrument control and analysis were performed with 3D-CE ChemStation software (Agilent Technologies). Uncoated fused-silica capillary (Agilent Technologies) of 50 µm internal diameter, total length of 33.0 cm and effective length (to the detector) of 24.5 cm was used. The capillary cassette temperature was maintained at 25 °C with air cooling. Three milligrams of the sample were dissolved in 1 mL of 50% methanol and 10 times diluted with appropriate background electrolyte before analysis. Samples were injected hydrodynamically at 40 mbar pressure for 4.0 s. Running voltage was 15 kV of positive polarity. UV detection was performed at 254 nm. As a marker of electroosmotic flow, mesityl oxide was used. The effective mobilities were recorded for BGE pH values in the range of 3.9 to 9.2 (ionic strength equal to 10 mM), 4 runs at 10 different buffer pH values. The effective mobilities (μeff) were calculated according to Equation (3). (3) μeff=LtotLeff/U(1/tmig−1/tEOF) where tmig is the migration time of the analyte and tEOF is the migration time of a neutral marker compound that is of the same velocity as the electroosmotic flow (EOF). Leff is distance from the injection end of capillary to the detector and Ltot is the total length of the capillary over which the voltage U was applied. SigmaPlot for Windows version 11.0 (Systat Software GmbH, Erkrath, Germany) was employed for the nonlinear regression analysis of µeff/pH relationship having characteristic sigmoidal shape with inflection point indicating pKa value.
The pH measurements were taken with a combination glass electrode (HI 1332B, HANNA Instruments, Woonsocket, RI, USA), using a Thermo Orion 370 PerpHect® pH meter (ThermoFisher Scientific).

| SMILES | log kw7.4 [1] | log kw [1] | pKa [2] | melting point [°C] |
| --- | --- | --- | --- | --- |
| C=CCOCCOc1ccc(C(=O)OCC(O)CN2CCN(c3ccccc3)CC2)cc1.Cl.Cl (stereo not drawn) [7a, 1-{3-[(4-Allyloxyethoxybenzoyl)oxy]-2-hydroxypropyl}-4-phenylpiperazinediium dichloride] | 3.97 ± 0.03 | 4.01 ± 0.09 | 6.47 ± 0.02 | 185 to 187 |
| C=CCOCCOc1ccc(C(=O)OCC(O)CN2CCN(c3ccccc3OC)CC2)cc1.Cl.Cl (stereo not drawn) [7b, 1-{3-[(4-Allyloxyethoxybenzoyl)oxy]-2-hydroxypropyl}-4-(2-methoxyphenyl)piperazinediium dichloride] | 3.78 ± 0.02 | 3.89 ± 0.08 | 6.88 ± 0.02 | 178 to 180 |
| C=CCOCCOc1ccc(C(=O)OCC(O)CN2CCN(c3ccc(OC)cc3)CC2)cc1.Cl.Cl (stereo not drawn) [7c, 1-{3-[(4-Allyloxyethoxybenzoyl)oxy]-2-hydroxypropyl}-4-(4-methoxyphenyl)piperazinediium dichloride] | 3.67 ± 0.02 | 3.71 ± 0.08 | 6.49 ± 0.02 | 170 to 173 |
| CC(C)OCCOc1ccc(C(=O)OCC(O)CN2CCN(c3ccccc3)CC2)cc1.Cl.Cl (stereo not drawn) [8a, 1-{2-Hydroxy-3-[(4-isopropoxyethoxybenzoyl)oxy]propyl}-4-phenylpiperazinediium dichloride] | 4.21 ± 0.01 | 4.25 ± 0.05 | 6.49 ± 0.01 | 200 to 202 |
| COc1ccccc1N1CCN(CC(O)COC(=O)c2ccc(OCCOC(C)C)cc2)CC1.Cl.Cl (stereo not drawn) [8b, 1-{2-Hydroxy-3-[(4-isopropoxyethoxybenzoyl)oxy]propyl}-4-(2-methoxyphenyl)piperazinediium dichloride] | 4.03 ± 0.02 | 4.15 ± 0.07 | 6.92 ± 0.01 | 154 to 156 |

Continued, values first:

| log kw7.4 [1] | log kw [1] | pKa [2] | melting point [°C] | SMILES |
| --- | --- | --- | --- | --- |
| 3.90 ± 0.02 | 3.93 ± 0.06 | 6.35 ± 0.02 | 193 to 195 | COc1ccc(N2CCN(CC(O)COC(=O)c3ccc(OCCOC(C)C)cc3)CC2)cc1.Cl.Cl (stereo not drawn) [8c, 1-{2-Hydroxy-3-[(4-isopropoxyethoxybenzoyl)oxy]propyl}-4-(4-methoxyphenyl)piperazinediium dichloride] |
| 4.29 ± 0.03 | 4.34 ± 0.10 | 6.5 ± 0.02 | 197 to 199 | CCCOCCOc1ccc(C(=O)OCC(O)CN2CCN(c3ccccc3)CC2)cc1.Cl.Cl (stereo not drawn) [9a, 1-{2-Hydroxy-3-[(4-propoxyethoxybenzoyl)oxy]propyl}-4-phenylpiperazinediium dichloride] |
| 4.11 ± 0.02 | 4.20 ± 0.09 | 6.79 ± 0.02 | 143 to 146 | CCCOCCOc1ccc(C(=O)OCC(O)CN2CCN(c3ccccc3OC)CC2)cc1.Cl.Cl (stereo not drawn) [9b, 1-{2-Hydroxy-3-[(4-propoxyethoxybenzoyl)oxy]propyl}-4-(2-methoxyphenyl)piperazinediium dichloride] |
| 3.99 ± 0.02 | 4.03 ± 0.09 | 6.39 ± 0.01 | 173 to 175 | CCCOCCOc1ccc(C(=O)OCC(O)CN2CCN(c3ccc(OC)cc3)CC2)cc1.Cl.Cl (stereo not drawn) [9c, 1-{2-Hydroxy-3-[(4-propoxyethoxybenzoyl)oxy]propyl}-4-(4-methoxyphenyl)piperazinediium dichloride] |
